{"source": "paper PMC10641236", "about": "“Influenza A virus replication has a stronger dependency on Raf/MEK/ERK signaling pathway activity than SARS-CoV-2” (Frontiers in Cellular and Infection Microbiology, 2023)", "key": {"[1]": {"test_system": "Caco-2 cells", "format": "cell-based", "settings": "human, 24 h", "protocol": "(§1) Per well, 2.5 × 10^4 Caco-2 cells or 4 × 10^4 Calu-3 cells were seeded in 96-well plates (Greiner Bio-One, Kremsmünster, Austria) and incubated for 24 h at 37°C, 5% CO2. Cell viability was assessed using a WST-1 assay according to the manufacturer’s recommendations (Roche, Basel, Switzerland). For reference, cell viability was assessed at 0 h and after 24 h of treatment with different concentrations of zapnometinib in medium containing 1% DMSO. The measured cell viability was normalized to the 0-h control. The CC50 value was determined using the “Sigmoidal, 4PL, X is log(concentration)” equation in GraphPad Prism."}, "[2]": {"test_system": "Calu-3 cells", "format": "cell-based", "settings": "human, 24 h", "protocol": "as §1"}, "[3]": {"test_system": "COVID-19", "settings": "hospitalized COVID-19 patients; ref ClinicalTrials.gov NCT04776044; cited from earlier work"}}}
{"smiles": "O=C(O)c1ccc(F)c(F)c1Nc1ccc(I)cc1Cl", "note": "[zapnometinib, 2-(2-chloro-4-iodophenylamino)-N-3,4-difluoro benzoic acid]", "values": [{"measurement": "CC50", "setting": "[1]", "value": 360, "unit": "µM"}, {"measurement": "CC50", "setting": "[2]", "value": 303, "unit": "µM"}, {"measurement": "efficacy in terms of the primary endpoint, phase II clinical trial", "setting": "[3]", "value": "clinically relevant efficacy profile"}, {"measurement": "safety profile, phase II clinical trial", "setting": "[3]", "value": "favorable safety profile"}]}
